# According to US10202361B2, “Pyridazinones as herbicides” (E I DU PONT DE NEMOURS AND COMPANY, priority 2014, dated 2019):
# Columns and labels:
# Experiment in all cases: Test C pre-/postemergence greenhouse herbicide test
# Format in all cases: in vivo
# [1] = system: corn (Zea mays); settings: Zea mays, post-emergence, Corn, Postemergence, read-out: Plant response rating
# Method in brief: (§1)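 Visual ratings, 0 = no effect, 100 = complete control, vs untreated controls at 13–15 d. Pre: seeds in loam/sand. Post: 2–18 cm plants (1–4 leaf), peat/vermiculite mix. Surfactant-containing solvent formulation; greenhouse.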
# [2] = system: wheat (winter wheat, Triticum aestivum); settings: Triticum aestivum, post-emergence, Wheat, Postemergence, read-out: Plant response rating
# Method in brief: as §1
# [3] = system: blackgrass (Alopecurus myosuroides); settings: Alopecurus myosuroides, post-emergence, Blackgrass, Postemergence, read-out: Plant response rating
# Method in brief: as §1
# [4] = system: ragweed (common ragweed, Ambrosia elatior); settings: Ambrosia artemisiifolia, post-emergence, Ragweed, Postemergence, read-out: Plant response rating
# Method in brief: as §1
# [5] = system: pigweed (Amaranthus retroflexus); settings: Amaranthus retroflexus, post-emergence, Pigweed, Postemergence, read-out: Plant response rating
# Method in brief: as §1
# [6] = system: oat, wild (wild oat, Avena fatua); settings: Postemergence
# Method in brief: as §1
# [7] = system: lambsquarters (Chenopodium album); settings: Postemergence
# Method in brief: as §1
# [8] = system: nutsedge, yellow (yellow nutsedge, Cyperus esculentus); settings: Cyperus, post-emergence, Nutsedge, Yellow, Postemergence, read-out: Plant response rating
# Method in brief: as §1
# [9] = system: barnyardgrass (Echinochloa crus-galli); settings: Barnyardgrass, Postemergence
# Method in brief: as §1
# [10] = system: crabgrass, Large (large crabgrass, Digitaria sanguinalis); settings: Digitaria sanguinalis, post-emergence, Crabgrass, Large, Postemergence, read-out: Plant response rating
# Method in brief: as §1
# [11] = system: johnsongrass (Sorghum halepense); settings: Sorghum halepense, post-emergence, Johnsongrass, Postemergence, read-out: Plant response rating
# Method in brief: as §1
# [12] = system: waterhemp (common waterhemp, Amaranthus rudis); settings: Waterhemp, Postemergence
# Method in brief: as §1
smiles,measurement,setting,value
"Cc1cc(Oc2ccnc(C(F)(F)F)c2)nn(-c2ccc(C(F)(F)F)cc2)c1=O [Compound 6, 4-methyl-2-[4-(trifluoromethyl)phenyl]-6-[[2-(trifluoromethyl)-4-pyridinyl]oxy]-3(2H)-pyridazinone]",plant injury at 31 g/ha,[1]; 31 g ai/ha,15%
same,plant injury at 62 g/ha,[1]; 62 g ai/ha,25%
same,plant injury at 125 g/ha,[1]; 125 g ai/ha,25%
same,plant injury at 250 g/ha,[1]; 250 g ai/ha,35%
same,plant injury at 31 g/ha,[2]; 31 g ai/ha,10%
same,plant injury at 62 g/ha,[2]; 62 g ai/ha,10%
same,plant injury at 125 g/ha,[2]; 125 g ai/ha,15%
same,plant injury at 250 g/ha,[2]; 250 g ai/ha,25%
same,pest or weed control at 31 g/ha,[3]; 31 g ai/ha,30%
same,pest or weed control at 62 g/ha,[3]; 62 g ai/ha,35%
same,pest or weed control at 125 g/ha,[3]; 125 g ai/ha,35%
same,pest or weed control at 250 g/ha,[3]; 250 g ai/ha,50%
same,pest or weed control at 31 g/ha,[4]; 31 g ai/ha,50%
same,pest or weed control at 62 g/ha,[4]; 62 g ai/ha,55%
same,pest or weed control at 125 g/ha,[4]; 125 g ai/ha,80%
same,pest or weed control at 250 g/ha,[4]; 250 g ai/ha,80%
same,pest or weed control at 31 g/ha,[5]; 31 g ai/ha,85%
same,pest or weed control at 62 g/ha,[5]; 62 g ai/ha,95%
same,pest or weed control at 125 g/ha,[5]; 125 g ai/ha,95%
same,pest or weed control at 250 g/ha,[5]; 250 g ai/ha,95%
same,Plant response rating,[6]; 31 g ai/ha,20
same,Plant response rating,[6]; 62 g ai/ha,25
same,Plant response rating,[6]; 125 g ai/ha,25
same,Plant response rating,[6]; 250 g ai/ha,50
same,Plant response rating,[7]; 31 g ai/ha,75
same,Plant response rating,[7]; 62 g ai/ha,90
same,Plant response rating,[7]; 125 g ai/ha,95
same,Plant response rating,[7]; 250 g ai/ha,95
same,pest or weed control at 31 g/ha,[8]; 31 g ai/ha,5%
same,pest or weed control at 62 g/ha,[8]; 62 g ai/ha,5%
same,pest or weed control at 125 g/ha,[8]; 125 g ai/ha,5%
same,pest or weed control at 250 g/ha,[8]; 250 g ai/ha,15%
same,Plant response rating,[9]; 31 g ai/ha,10
same,Plant response rating,[9]; 62 g ai/ha,10
same,Plant response rating,[9]; 125 g ai/ha,35
same,Plant response rating,[9]; 250 g ai/ha,65
same,pest or weed control at 31 g/ha,[10]; 31 g ai/ha,10%
same,pest or weed control at 62 g/ha,[10]; 62 g ai/ha,20%
same,pest or weed control at 125 g/ha,[10]; 125 g ai/ha,30%
same,pest or weed control at 250 g/ha,[10]; 250 g ai/ha,35%
same,pest or weed control at 31 g/ha,[11]; 31 g ai/ha,5%
same,pest or weed control at 62 g/ha,[11]; 62 g ai/ha,10%
same,pest or weed control at 125 g/ha,[11]; 125 g ai/ha,20%
same,pest or weed control at 250 g/ha,[11]; 250 g ai/ha,40%
same,Plant response rating,[12]; 31 g ai/ha,95
same,Plant response rating,[12]; 62 g ai/ha,98
same,Plant response rating,[12]; 125 g ai/ha,98
same,Plant response rating,[12]; 250 g ai/ha,98
